Where two headings read alike, the source gives them in different places.

A short description of data set [1]: Cytotoxicity determination in HepG2.2.15 cells (CCK-8). The conditions noted are these: human, 6 days of compound treatment, CCK-8, highest concentration 100 μM. Format: cell-based. A digest of the protocol:
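HepG2.2.15 cells seeded at 5,000 cells/well in 2% FBS medium, incubated overnight at 37° C., then treated 6 days with compounds (8 points, 3-fold dilutions, top 100 μM), medium refreshed once midway. CCK-8 added for 2.5 h; A450 read against 630 nm reference; CC50 calculated, averaged over repeats.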

For data set [2], the system named is HBV. Description: HBV inhibitory activity: HBV DNA in the culture medium of HepG2.2.15 cells by q-PCR. Format: cell-based. The conditions noted are these: Hepatitis B virus, HepG2.2.15, 144 h. The gist of the method: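 HepG2.2.15 cells in 2% FBS medium, 40,000 per well, treated 6 days with compound (medium refreshed once), eight 3-fold dilutions from 10 μM top. HBV DNA extracted from culture medium and quantified by q-PCR; EC50 averaged over repeats. Cytotoxicity run in parallel at 5,000 cells per well, top 100 μM, giving CC50.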

The mark [3] stands for this setting: HepG2.2.15 cells, 6 days of compound treatment, HBV DNA in culture medium by q-PCR, highest concentration 10 μM, read-out: EC50.

On to `COC(=O)C1=C(C2CC3CCC(C2)N3S(C)(=O)=O)NC(c2nccs2)=NC1c1cccc(F)c1Cl` (single isomer, unassigned) [Compound 39B, 4-(2-Chloro-3-fluoro-phenyl)-6-(8-methanesulfonyl-8-aza-bicyclo[3.2.1]oct-3-yl)-2-thiazol-2-yl-1,4-dihydro-pyrimidine-5-carboxylic Acid Methyl Ester], for which the midpoint of cytotoxicity in data set [1], the CC50 at 6 days, lay at 30600 nM. In data set [2] (setting [3]), the EC50 was 101 nM.
In the same order, the values of `COC(=O)C1=C(C2CCN(S(=O)(=O)[C@H]3CC[C@H](C(=O)O)CC3)CC2)NC(c2nccs2)=NC1c1ccc(F)cc1Cl` (relative stereo) [Compound 313B, (trans)-4-((4-(6-(2-Chloro-4-fluorophenyl)-5-(methoxycarbonyl)-2-(thiazol-2-yl)-3,6-dihydropyrimidin-4-yl)piperidin-1-yl)sulfonyl)-cyclohexanecarboxylic Acid] are 34600 nM and 11 nM.
For `COC(=O)C1=C(C2CCNC(=O)C2)NC(c2nccs2)=NC1c1ccc(F)cc1Cl` (centres unmarked) [Compound 3, Methyl 4-(2-chloro-4-fluorophenyl)-6-(2-oxopiperidin-4-yl)-2-(thiazol-2-yl)-1,4-dihydro-pyrimidine-5-carboxylate], in that order: 32800 nM and 38 nM.
In the same order, the values of `COC(=O)C1=C([C@H]2CCC[C@@H](C(=O)OC)C2)NC(c2nccs2)=NC1c1cccc(F)c1Cl` (single isomer, unassigned) [Compound 24Q, cis-Methyl 4-(2-chloro-3-fluorophenyl)-6-(3-(methoxycarbonyl)-cyclohexyl)-2-(thiazol-2-yl)-1,4-dihydropyrimidine-5-carboxylate] are 3520 nM and 964 nM.
As for `COC(=O)C1=C(C2CCN(S(=O)(=O)c3cn(C)cn3)CC2)NC(c2nccs2)=NC1c1ccc(F)cc1Cl` (centres unmarked) [Compound 201A, Methyl 4-(2-chloro-4-fluorophenyl)-6-(1-((1-methyl-1H-imidazol-4-yl)sulfonyl)piperidin-4-yl)-2-(thiazol-2-yl)-1,4-dihydropyrimidine-5-carboxylate], the 50% cytotoxic concentration (CC50) at 6 days in data set [1] is 15700 nM. In addition, the EC50 in data set [2] (setting [3]) is 53 nM.
`CCOC(=O)C1=C(C2CCN(S(=O)(=O)[C@H]3CC[C@H](C(=O)O)CC3)CC2)NC(c2nccs2)=NC1c1ccc(F)c(F)c1Cl` (relative stereo) [Compound 354C, (trans)-4-((4-(6-(2-Chloro-3,4-difluorophenyl)-5-(ethoxycarbonyl)-2-(thiazol-2-yl)-3,6-dihydropyrimidin-4-yl)piperidin-1-yl)sulfonyl)cyclohexane-carboxylic Acid] showed a CC50 at 6 days in data set [1] of 7900 nM. For the same molecule, in data set [2] (setting [3]), the half-maximal effective concentration (EC50) amounted to 15 nM.
Molecule `CCOC(=O)C1=C(C2CCN(S(=O)(=O)[C@H]3C[C@@H](C(=O)O)C3)CC2)NC(c2nccs2)=NC1c1ccc(F)c(F)c1Cl` (relative stereo) [Compound 370D, (cis)-3-((4-(6-(2-Chloro-3,4-difluorophenyl)-5-(ethoxycarbonyl)-2-(thiazol-2-yl)-3,6-dihydropyrimidin-4-yl)piperidin-1-yl)sulfonyl)cyclobutanecarboxylic Acid] yielded a CC50 at 6 days in data set [1] of 26300 nM. In data set [2] (setting [3]), the 50% effective concentration (EC50) was 40 nM.
For `CCOC(=O)C1=C(C2CCN(S(=O)(=O)[C@H]3C[C@H](C(=O)O)C3)CC2)NC(c2nccs2)=NC1c1ccc(F)c(F)c1Cl` (relative stereo) [Compound 370B, (trans)-3-((4-(6-(2-Chloro-3,4-difluorophenyl)-5-(ethoxycarbonyl)-2-(thiazol-2-yl)-3,6-dihydropyrimidin-4-yl)piperidin-1-yl)sulfonyl)cyclobutanecarboxylic Acid], in that order: 23200 nM and 4 nM.
In the same order, the values of `COC(=O)C1=C([C@H]2CCCC(C(=O)O)C2)NC(c2nccs2)=NC1c1cccc(F)c1Cl` (stereo in doubt) [Compound 25, cis-3-(6-(2-Chloro-3-fluorophenyl)-5-(methoxycarbonyl)-2-(thiazol-2-yl)-3,6-dihydropyrimidin-4-yl)cyclohexanecarboxylic Acid] are 35300 nM and 165 nM.
Molecule `COC(=O)C1=C(C2CCCCO2)NC(c2nccs2)=NC1c1ccc(F)cc1Cl` (single isomer, unassigned) [Compound 49C, Methyl 4-(2-chloro-4-fluorophenyl)-6-(tetrahydro-2H-pyran-2-yl)-2-(thiazol-2-yl)-1,4-dihydropyrimidine-5-carboxylate] returned a half-maximal cytotoxic concentration (CC50) at 6 days in data set [1] of 84600 nM. Also, the concentration for a half-maximal effect (EC50) in data set [2] (setting [3]) amounted to 202 nM.
In the same order, the values of `COC(=O)C1=C(C2CCN(S(C)(=O)=O)CC2)NC(c2nccs2)=NC1c1ccc(Cl)cc1F` (centres unmarked) [Compound 97B, 4-(4-Chloro-2-fluoro-phenyl)-6-(1-methanesulfonyl-pip-eridin-4-yl)-2-thiazol-2-yl-1,4-dihydro-pyrimidine-5-carboxylic Acid Methyl Ester] are greater than 100000 nM and 47 nM.
For `COC(=O)C1=C(C2CCN(S(=O)(=O)[C@H]3C[C@H](C(=O)O)C3)CC2)NC(c2nccs2)=NC1c1cccc(F)c1Br` (relative stereo) [Compound 439B, (trans)-3-((4-(6-(2-Bromo-3-fluorophenyl)-5-(methoxycarbonyl)-2-(thiazol-2-yl)-3,6-dihydropyrimidin-4-yl)piperidin-1-yl)sulfonyl)cyclobutanecarboxylic Acid], in that order: 53800 nM and 66 nM.
For `CCOC(=O)C1=C(C2CCN(S(=O)(=O)[C@H]3CC[C@@H](C(=O)O)CC3)CC2)NC(c2nccs2)=NC1c1ccc(F)c(F)c1Cl` (relative stereo) [Compound 354B, (cis)-4-((4-(6-(2-Chloro-3,4-difluorophenyl)-5-(ethoxycarbonyl)-2-(thiazol-2-yl)-3,6-dihydropyrimidin-4-yl)piperidin-1-yl)sulfonyl)cyclohexane-carboxylic Acid], in that order: 7000 nM and 18 nM.
Take `CCOC(=O)C1=C([C@H]2C[C@@H](NS(C)(=O)=O)C2(C)C)NC(c2nccs2)=NC1c1ccc(F)cc1Cl` (mixture of isomers) [Compound 437, (cis)-Ethyl 4-(2-chloro-4-fluorophenyl)-6-(2,2-dimethyl-3-(methylsulfonamido)cyclobutyl)-2-(thiazol-2-yl)-1,4-dihydropyrimidine-5-carboxylate]: half-maximal cytotoxicity in data set [1] (CC50 at 6 days) was put at 4000 nM. The concentration for a half-maximal effect (EC50) in data set [2] (setting [3]) was determined as 404 nM.
`COC(=O)C1=C([C@H]2CC[C@H](C(=O)O)CC2)NC(c2nccs2)=NC1c1ccc(F)cc1Cl` (single isomer, unassigned) [Compound 19, trans-4-(6-(2-Chloro-4-fluorophenyl)-5-(methoxycarbonyl)-2-(thiazol-2-yl)-3,6-dihydropyrimidin-4-yl)cyclohexanecarboxylic Acid] showed a 50% cytotoxic concentration (CC50) at 6 days in data set [1] of 8700 nM. For the same molecule, in data set [2] (setting [3]), the 50% effective concentration (EC50) turned out to be 62 nM.
In the same order, the values of `COCCS(=O)(=O)N1CCC(C2=C(C(=O)OC)C(c3ccc(F)cc3Cl)N=C(c3nccs3)N2)C1` (single isomer, unassigned) [Compound 365, Methyl 4-(2-chloro-4-fluorophenyl)-6-((R*)-1-((2-methoxyethyl)sulfonyl)pyrrolidin-3-yl)-2-(thiazol-2-yl)-1,4-dihydropyrimidine-5-carboxylate] are 21800 nM and 61 nM.
In the case of `COC(=O)C1=C(C2CCN(S(=O)(=O)c3cnn(C[C@H](C)O)c3)CC2)NC(c2nccs2)=NC1c1ccc(F)cc1Cl` (stereo partly drawn) [Compound 360D, methyl 4-(2-chloro-4-fluorophenyl)-6-(1-((1-((S)-2-hydroxypropyl)-1H-pyrazol-4-yl)sulfonyl)piperidin-4-yl)-2-(thiazol-2-yl)-1,4-dihydropyrimidine-5-carboxylate], the CC50 at 6 days in data set [1] amounted to 20400 nM. Further, the half-maximal effective concentration (EC50) in data set [2] (setting [3]) worked out at 105 nM.
In turn, `COC(=O)C1=C([C@H]2C[C@@H](C)CO2)NC(c2nccs2)=NC1c1cccc(F)c1Cl` (relative stereo) [Compound 171, (cis)-Methyl 4-(2-chloro-3-fluorophenyl)-6-(4-methyltetrahydrofuran-2-yl)-2-(thiazol-2-yl)-1,4-dihydropyrimidine-5-carboxylate] registered a CC50 at 6 days in data set [1] of 15500 nM. Further, in data set [2] (setting [3]), the EC50 is 124 nM.
`COC(=O)C1=C(C2CCN(S(=O)(=O)CCOCCO)CC2)NC(c2nccs2)=NC1c1ccc(F)cc1Cl` (centres unmarked) [Compound 484, Methyl 4-(2-chloro-4-fluorophenyl)-6-(1-((2-(2-hydroxyethoxy)ethyl)sulfonyl)piperidin-4-yl)-2-(thiazol-2-yl)-1,4-dihydropyrimidine-5-carboxylate]: the CC50 at 6 days in data set [1] stood at 47000 nM. The molecule also yielded a 50% effective concentration (EC50) in data set [2] of 5 nM.
In data set [1], `COC(=O)C1=C(C2CCN(C(N)=O)CC2)NC(c2nccs2)=NC1c1ccc(F)cc1Cl` (centres unmarked) [Compound 303, Methyl 6-(1-carbamoylpiperidin-4-yl)-4-(2-chloro-4-fluorophenyl)-2-(thiazol-2-yl)-1,4-dihydropyrimidine-5-carboxylate] had a CC50 at 6 days greater than 100000 nM. Further, in data set [2] (setting [3]), the EC50 came to 54 nM.
For `COC(=O)C1=C([C@H]2CC[C@H](C(=O)O)CC2)NC(c2nccs2)=NC1c1cccc(F)c1Br` (some centres unmarked) [Compound 152A], in that order: 39500 nM and 92 nM.
For `COC(=O)C1=C(C2CCN(S(=O)(=O)CC(C)(C)C(=O)O)CC2)NC(c2nccs2)=NC1c1ccc(F)cc1Cl` (centres unmarked) [Compound 223, 3-((4-(6-(2-Chloro-4-fluorophenyl)-5-(methoxycarbonyl)-2-(thiazol-2-yl)-3,6-dihydropyrimidin-4-yl)piperidin-1-yl)sulfonyl)-2,2-dimethylpropanoic Acid], in that order: 50000 nM and 145 nM.

Usually CC50 stands for the concentration giving 50% cytotoxicity. Low readings indicate harm at low concentration, high ones better tolerance by the cells. For orientation: EC50 means the concentration giving half of the maximal effect.

The values above are taken from patent US11639350B2, “Heteroaryldihydropyrimidine derivatives and methods of treating hepatitis B infections” (Janssen Pharmaceutica NV, priority 2018, dated 2023).
